Biological target: T1, human apelin receptor (Homo sapiens, UniProt P35414)
T1 construct: expressed in transfected cells
T1 sequence (P35414 1-380): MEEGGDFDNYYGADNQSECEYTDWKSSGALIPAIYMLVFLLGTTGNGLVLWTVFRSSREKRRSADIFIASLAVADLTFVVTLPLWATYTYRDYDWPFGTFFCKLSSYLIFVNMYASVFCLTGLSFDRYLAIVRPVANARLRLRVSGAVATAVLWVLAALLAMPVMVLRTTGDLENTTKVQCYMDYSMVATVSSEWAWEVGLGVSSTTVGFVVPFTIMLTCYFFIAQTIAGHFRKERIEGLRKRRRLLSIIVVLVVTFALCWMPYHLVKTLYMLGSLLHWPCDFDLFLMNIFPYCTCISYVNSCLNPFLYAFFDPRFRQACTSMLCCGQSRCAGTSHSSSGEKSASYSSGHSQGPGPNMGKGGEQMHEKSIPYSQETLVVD
Experiment: Determination of agonism on the human apelin receptor by a calcium fluorescence assay (FLIPR)
Format: cell-based
Conditions: HEK293 cells stably transfected with human apelin receptor and Giaq protein, Fluo-4 calcium fluorescence, read-out: EC50 (APJ agonism)
Procedure, shortened: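 Agonist EC50s come from peak intracellular calcium transients recorded by FLIPR Tetra, scaled to the 1 μM apelin-13 maximum per plate. Test system: HEK293 stably transfected with human apelin receptor plus Giaq, Fluo-4-loaded (4 μM, 1 h, 37 °C, pH 7.4 buffer with probenecid); ≥7 concentrations, triplicates.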

Structure (SMILES)	EC50 [µM]
CC(C)C[C@@H](CC(=O)O)NC(=O)c1ccc2c(c1)nc(Cc1ccco1)n2C1CCCCC1C (stereo partly drawn) [Example 99, (S)-3-{[2-Furan-2-ylmethyl-1-(2-methyl-cyclohexyl)-1H-benzoimidazole-5-carbonyl]-amino}-5-methyl-hexanoic acid]	0.046
CCC(CC)n1c(Cc2cccs2)nc2cc(C(=O)N[C@H](CC(=O)O)Cc3ccccc3)ccc21 [Example 100, (S)-3-{[1-(1-Ethyl-propyl)-2-thiophen-2-ylmethyl-1H-benzoimidazole-5-carbonyl]-amino}-4-phenyl-butyric acid]	5.84
CC(C)C[C@@H](CC(=O)O)NC(=O)c1ccc2c(c1)nc(Cc1cccs1)n2C1CCCCC1C (stereo partly drawn) [Example 101, (S)-5-Methyl-3-{[1-(2-methyl-cyclohexyl)-2-thiophen-2-ylmethyl-1H-benzoimidazole-5-carbonyl]-amino}-hexanoic acid]	0.106
CC(C)C[C@@H](CC(=O)O)NC(=O)c1ccc2c(c1)nc(Cc1cccs1)n2C1CCCCC1C(F)(F)F (stereo partly drawn) [Example 102, (S)-5-Methyl-3-{[2-thiophen-2-ylmethyl-1-(2-trifluoromethyl-cyclohexyl)-1H-benzoimidazole-5-carbonyl]-amino}-hexanoic acid]	0.247
O=C(O)C[C@H](Cc1ccccc1)NC(=O)c1ccc2c(c1)nc(Cc1cccs1)n2C1CCCCC1C(F)(F)F (stereo partly drawn) [Example 103, (S)-4-Phenyl-3-{[2-thiophen-2-ylmethyl-1-(2-trifluoromethyl-cyclohexyl)-1H-benzoimidazole-5-carbonyl]-amino}-butyric acid]	11
CC(C)C[C@@H](CC(=O)O)NC(=O)c1ccc2c(c1)nc(Cc1cccs1)n2C1CCCC1C (stereo partly drawn) [Example 104, (S)-5-Methyl-3-{[1-(2-methyl-cyclopentyl)-2-thiophen-2-ylmethyl-1H-benzoimidazole-5-carbonyl]-amino}-hexanoic acid]	0.479
CCC(CC)n1c(Cc2ccno2)nc2cc(C(=O)N[C@H](CC(=O)O)CC(C)C)ccc21 [Example 105, (S)-3-{[1-(1-Ethyl-propyl)-2-isoxazol-5-ylmethyl-1H-benzoimidazole-5-carbonyl]-amino}-5-methyl-hexanoic acid]	5.47
CC(C)C[C@@H](CC(=O)O)NC(=O)c1ccc2c(c1)nc(Cc1cncs1)n2[C@@H]1CCCC[C@H]1C [Example 106, (S)-5-Methyl-3-{[1-((1R,2R)-2-methyl-cyclohexyl)-2-thiazol-5-ylmethyl-1H-benzoimidazole-5-carbonyl]-amino}-hexanoic acid]	0.048
CCC(CC)n1c(Cc2cccs2)nc2cc(C(=O)N[C@H](CC(=O)O)CC(C)C)ccc21 [Example 107, (S)-3-{[1-(1-Ethyl-propyl)-2-thiophen-2-ylmethyl-1H-benzoimidazole-5-carbonyl]-amino}-5-methyl-hexanoic acid]	0.047
CC(C)C[C@H](NC(=O)c1ccc2c(c1)nc(Cc1cccs1)n2C1CCCCC1)C(=O)O [Example 108, (S)-2-[(1-Cyclohexyl-2-thiophen-2-ylmethyl-1H-benzoimidazole-5-carbonyl)-amino]-4-methyl-pentanoic acid]	1.06
CCC(C)Cn1c(CC2CCCC2)nc2cc(C(=O)N[C@@H](CC(C)C)C(=O)O)ccc21 (stereo partly drawn) [Example 109, (S)-2-{[2-Cyclopentylmethyl-1-(2-methyl-butyl)-1H-benzoimidazole-5-carbonyl]-amino}-4-methyl-pentanoic acid]	3.86
CC(C)C[C@H](NC(=O)c1ccc2c(c1)nc(Cc1cccs1)n2C1CCCC1)C(=O)O [Example 110, (S)-2-[(1-Cyclopentyl-2-thiophen-2-ylmethyl-1H-benzoimidazole-5-carbonyl)-amino]-4-methyl-pentanoic acid]	2.03
CC(C)C[C@H](NC(=O)c1ccc2c(c1)nc(Cc1cccs1)n2C1CCCCCC1)C(=O)O [Example 111, (S)-2-[(1-Cycloheptyl-2-thiophen-2-ylmethyl-1H-benzoimidazole-5-carbonyl)-amino]-4-methyl-pentanoic acid]	0.579
CC(C)C[C@H](NC(=O)c1ccc2c(c1)nc(CC1CCCC1)n2C1CCCCC1)C(=O)O [Example 112, (S)-2-[(1-Cyclohexyl-2-cyclopentylmethyl-1H-benzoimidazole-5-carbonyl)-amino]-4-methyl-pentanoic acid]	12.8
CCC(C)Cn1c(Cc2cccs2)nc2cc(C(=O)N[C@@H](CC(C)C)C(=O)O)ccc21 (stereo partly drawn) [Example 113, (S)-4-Methyl-2-{[1-(2-methyl-butyl)-2-thiophen-2-ylmethyl-1H-benzoimidazole-5-carbonyl]-amino}-pentanoic acid]	21.7
CCC(CC)n1c(Cc2cccs2)nc2cc(C(=O)N[C@@H](CC(C)C)C(=O)O)ccc21 [Example 114, (S)-2-{[1-(1-Ethyl-propyl)-2-thiophen-2-ylmethyl-1H-benzoimidazole-5-carbonyl]-amino}-4-methyl-pentanoic acid]	0.185
Cc1ccc(-n2c(Cc3cccs3)nc3cc(C(=O)N[C@@H](CC(C)C)C(=O)O)ccc32)cc1 [Example 115, (S)-4-Methyl-2-[(2-thiophen-2-ylmethyl-1-p-tolyl-1H-benzoimidazole-5-carbonyl)-amino]-pentanoic acid]	34.6
CCC(CC)n1c(Cc2ccccc2)nc2cc(C(=O)N[C@@H](CC(C)C)C(=O)O)ccc21 [Example 116, (S)-2-{[2-Benzyl-1-(1-ethyl-propyl)-1H-benzoimidazole-5-carbonyl]-amino}-4-methyl-pentanoic acid]	6.71
CCC(CC)n1c(Cc2ccsc2)nc2cc(C(=O)N[C@@H](CC(C)C)C(=O)O)ccc21 [Example 117, (S)-2-{[1-(1-Ethyl-propyl)-2-thiophen-3-ylmethyl-1H-benzoimidazole-5-carbonyl]-amino}-4-methyl-pentanoic acid]	0.419

Further lines, results first:

EC50 [µM]	Structure (SMILES)
0.222	CCC(CC)n1c(Cc2ccoc2)nc2cc(C(=O)N[C@@H](CC(C)C)C(=O)O)ccc21 [Example 118, (S)-2-{[1-(1-Ethyl-propyl)-2-furan-3-ylmethyl-1H-benzoimidazole-5-carbonyl]-amino}-4-methyl-pentanoic acid]
33.1	CCC(CC)n1c(Cc2ccc(C)s2)nc2cc(C(=O)N[C@@H](CC(C)C)C(=O)O)ccc21 [Example 119, (S)-2-{[1-(1-Ethyl-propyl)-2-(5-methyl-thiophen-2-ylmethyl)-1H-benzoimidazole-5-carbonyl]-amino}-4-methyl-pentanoic acid]
24.1	CCC(CC)n1c(CC2CCCCC2)nc2cc(C(=O)N[C@@H](CC(C)C)C(=O)O)ccc21 [Example 120, (S)-2-{[2-Cyclohexylmethyl-1-(1-ethyl-propyl)-1H-benzoimidazole-5-carbonyl]-amino}-4-methyl-pentanoic acid]
0.074	CCC(C)[C@H](NC(=O)c1ccc2c(c1)nc(Cc1cccs1)n2C(CC)CC)C(=O)O (stereo partly drawn) [Example 121, (S)-2-{[1-(1-Ethyl-propyl)-2-thiophen-2-ylmethyl-1H-benzoimidazole-5-carbonyl]-amino}-3-methyl-pentanoic acid]
4.38	CCC(CC)n1c(Cc2cccs2)nc2cc(C(=O)N[C@H](C(=O)O)C(C)C)ccc21 [Example 122, (S)-2-{[1-(1-Ethyl-propyl)-2-thiophen-2-ylmethyl-1H-benzoimidazole-5-carbonyl]-amino}-3-methyl-butyric acid]
1.88	CCC(CC)n1c(Cc2cccs2)nc2cc(C(=O)N[C@@H](CCSC)C(=O)O)ccc21 [Example 123, (S)-2-{[1-(1-Ethyl-propyl)-2-thiophen-2-ylmethyl-1H-benzoimidazole-5-carbonyl]-amino}-4-methylsulfanyl-butyric acid]
9.35	CCC(CC)n1c(Cc2cccs2)nc2cc(C(=O)N[C@@H](Cc3ccccc3)C(=O)O)ccc21 [Example 124, (S)-2-{[1-(1-Ethyl-propyl)-2-thiophen-2-ylmethyl-1H-benzoimidazole-5-carbonyl]-amino}-3-phenyl-propionic acid]
0.078	CCC(CC)n1c(Cc2cccs2)nc2cc(C(=O)N[C@@H](CC3CCCCC3)C(=O)O)ccc21 [Example 125, (S)-3-Cyclohexyl-2-{[1-(1-ethyl-propyl)-2-thiophen-2-ylmethyl-1H-benzoimidazole-5-carbonyl]-amino}-propionic acid]
3.93	CCC(CC)n1c(Cc2cccs2)nc2cc(C(=O)NC(CC(C)(C)C)C(=O)O)ccc21 (stereo not shown) [Example 126, 2-{[1-(1-Ethyl-propyl)-2-thiophen-2-ylmethyl-1H-benzoimidazole-5-carbonyl]-amino}-4,4-dimethyl-pentanoic acid]
15	CC(C)C[C@H](NC(=O)c1ccc2c(c1)nc(Cc1cccs1)n2CC(C)C)C(=O)O [Example 127, (S)-2-[(1-Isobutyl-2-thiophen-2-ylmethyl-1H-benzoimidazole-5-carbonyl)-amino]-4-methyl-pentanoic acid]
10	CC(C)C[C@H](NC(=O)c1ccc2c(c1)nc(CC1CCCC1)n2CC(C)C)C(=O)O [Example 128, (S)-2-[(2-Cyclopentylmethyl-1-isobutyl-1H-benzoimidazole-5-carbonyl)-amino]-4-methyl-pentanoic acid]
2.68	CCC(CC)n1c(CC2CCCC2)nc2cc(C(=O)N[C@@H](CC(C)C)C(=O)O)ccc21 [Example 129, (S)-2-{[2-Cyclopentylmethyl-1-(1-ethyl-propyl)-1H-benzoimidazole-5-carbonyl]-amino}-4-methyl-pentanoic acid]
